Experimental data reported in patent US10100036B2, “Lappaconitine aza-cinnamic acid derivatives with anti-tumor activities and a method of preparing the same” (priority 2016, dated 2018).

Experiments:
[1] = tested on: human prostate cancer cell line (PC-3); assay: tumor cell proliferation inhibition test, MTT method; format: cell-based; settings: 48 hours treatment
Description: (§1) The compounds of the present invention were subjected to tumor cell proliferation inhibition test, and the conventional MTT method was used as the test method.
(§2) Cell lines selected are human prostate cancer cell line (PC-3), human gastric adenocarcinoma cell line (SGC-7901), and human lung cancer cell (A-549). The culture medium was DMEM+15% NBS+double antibody.
(§3) Preparation of the sample solutions: compounds were dissolved in DMSO (Merck), and PBS (−) was add to 100 μL of the solution or homogeneous suspension. The solution or suspension was diluted with DMSO and PBS(−) to final concentrations of 0.1, 1, 10, 20, 40, 60, 80, 100 μmol/L.
(§4) Anti-tumor agent 5-fluorouracil (5-FU) was used as control and was prepared in the same way as the compounds.
(§5) Living cells mitochondria in the dehydrogenase can reduce yellow MTT to water-insoluble blue-violet product MT (MTT formazan), deposited in the cells. The amount of production is proportional to the number of living cells. […] DMSO can dissolve blue violet crystals, and the color depth is proportional to the amount contained, so the absorbance measured by the microplate reader can reflect the cell viability.
(§6) The exponential phase cells were digested and counted and seeded in 96-well plates at a density of 2×10^4/mL at 100 μl per well. After 24 hours of incubation, the cells to be tested were treated with 0.1, 1, 10, 20, 40, 60, 80, 100 μmol/L of the compounds. Each experimental group had 5 wells in each concentration, and the culture medium containing 0.4% DMSO was used as control. After 48 hours, the supernatant was discarded, and 100 μl of MTT ((2-(4,5-dimethyl-2-thiazolyl)-3,5-diphenyl-2H-tetrazole hydrobromide) (1 mg/mL) was added to each well. After another 4 hours, the supernatant was discarded, and 100 μL of DMSO was added to each well. After mixing, the absorbance was measured at 570 nm using a microplate reader. An IC50 calculation software was used to determine the half inhibitory concentration (IC50).

[2] = tested on: human lung cancer cell (A-549); assay: as above; format: cell-based; settings: 48 hours treatment, A549
Description: as §1, §2, §3, §4, §5, §6

[3] = tested on: human gastric adenocarcinoma cell line (SGC-7901); assay: as above; format: cell-based; settings: 48 hours treatment
Description: as §1, §2, §3, §4, §5, §6

[4] = tested on: PC-3, SGC-7901 and A-549 tumor cells; assay: tumor cell proliferation inhibition test, summary over the three cell lines; format: cell-based, human; settings: in the 3 cell lines tested
Description: as §1, §2, §6

In the case of CCN1C[C@]2(OC(=O)c3ccccc3NC(=O)/C=C/c3ccncc3)CC[C@H](OC)[C@]34C1[C@@H](C[C@H]23)[C@@]1(O)C[C@H](OC)C[C@H]2C[C@@H]4[C@]1(O)[C@H]2OC [Compound 1], the IC50 [1] is reported as 18.1 ± 0.64 µM, the IC50 [2] is reported as 9.12 ± 2.53 µM and the IC50 [3] is reported as 22.5 ± 1.35 µM.

CCN1C[C@]2(OC(=O)c3ccccc3NC(=O)/C=C/c3cccnc3)CC[C@H](OC)[C@]34C1[C@@H](C[C@H]23)[C@@]1(O)C[C@H](OC)C[C@H]2C[C@@H]4[C@]1(O)[C@H]2OC [Compound 2] gave an IC50 [1] of 26.4 ± 0.36 µM, an IC50 [2] of 13.4 ± 2.78 µM and an IC50 [3] of 26.3 ± 0.37 µM.

Compound CCN1C[C@]2(OC(=O)c3ccccc3NC(=O)/C=C/c3ccccn3)CC[C@H](OC)[C@]34C1[C@@H](C[C@H]23)[C@@]1(O)C[C@H](OC)C[C@H]2C[C@@H]4[C@]1(O)[C@H]2OC [Compound 3] has an IC50 [1] of 15.2 ± 1.18 µM and an IC50 [3] of 13.7 ± 1.28 µM.

For CCN1C[C@]2(OC(=O)c3ccccc3NC(=O)/C=C(\C)c3cccnc3)CC[C@H](OC)[C@]34C1[C@@H](C[C@H]23)[C@@]1(O)C[C@H](OC)C[C@H]2C[C@@H]4[C@]1(O)[C@H]2OC [Compound 4], the IC50 [1] was greater than 100 µM, the IC50 [2] was 67.31 ± 0.44 µM and the IC50 [3] was greater than 100 µM.

Compound O=c1[nH]cc(F)c(=O)[nH]1 [Compound 5-FU, 5-fluorouracil, reference compound] has an IC50 [1] of 8.17 ± 0.39 µM, an IC50 [2] of 15.6 ± 3.54 µM and an IC50 [3] of 22.4 ± 1.67 µM.

In the case of CCN1C[C@]2(OC(=O)c3ccccc3NC(=O)/C=C/c3cncc(C)c3)CC[C@H](OC)[C@]34C1[C@@H](C[C@H]23)[C@@]1(O)C[C@H](OC)C[C@H]2C[C@@H]4[C@]1(O)[C@H]2OC [Compound 5], the “activities compared with 5-fluorouracil” value [4] is reported as “equal or better activities than 5-fluorouracil”, the IC50 [1] is reported as 11.3 ± 0.64 µM and the IC50 [2] is reported as 13.2 ± 0.39 µM. For the same compound, the IC50 [3] was 29.6 ± 3.54 µM.

CCN1C[C@]2(OC(=O)c3ccccc3NC(=O)/C=C/c3cnccc3C)CC[C@H](OC)[C@]34C1[C@@H](C[C@H]23)[C@@]1(O)C[C@H](OC)C[C@H]2C[C@@H]4[C@]1(O)[C@H]2OC [Compound 6] gave an IC50 [1] of 33.5 ± 1.17 µM, an IC50 [2] of 42.65 ± 0.38 µM and an IC50 [3] of 37.8 ± 0.42 µM.

CCN1C[C@]2(OC(=O)c3ccccc3NC(=O)/C=C/c3ccc(C)nc3)CC[C@H](OC)[C@]34C1[C@@H](C[C@H]23)[C@@]1(O)C[C@H](OC)C[C@H]2C[C@@H]4[C@]1(O)[C@H]2OC [Compound 7] gave an IC50 [1] of 43.3 ± 1.42 µM, an IC50 [2] of 47.31 ± 0.44 µM and an IC50 [3] of 39.3 ± 1.74 µM.

Work on CCc1cncc(/C=C/C(=O)Nc2ccccc2C(=O)O[C@@]23CC[C@H](OC)[C@]45C([C@@H](C[C@H]24)[C@@]2(O)C[C@H](OC)C[C@H]4C[C@@H]5[C@]2(O)[C@H]4OC)N(CC)C3)c1 [Compound 8] yielded an IC50 [1] of 38.1 ± 0.44 µM, an IC50 [2] of 25.1 ± 2.23 µM and an IC50 [3] of 33.5 ± 1.18 µM.

CCN1C[C@]2(OC(=O)c3ccccc3NC(=O)/C=C(\C)c3ccncc3)CC[C@H](OC)[C@]34C1[C@@H](C[C@H]23)[C@@]1(O)C[C@H](OC)C[C@H]2C[C@@H]4[C@]1(O)[C@H]2OC [Compound 9] gave an IC50 [1] of 73.37 ± 0.69 µM, an IC50 [2] greater than 100 µM and an IC50 [3] greater than 100 µM.

CCN1C[C@]2(OC(=O)c3ccccc3NC(=O)/C(C)=C/c3ccncc3)CC[C@H](OC)[C@]34C1[C@@H](C[C@H]23)[C@@]1(O)C[C@H](OC)C[C@H]2C[C@@H]4[C@]1(O)[C@H]2OC [Compound 10] showed an IC50 [1] greater than 100 µM, an IC50 [2] greater than 100 µM and an IC50 [3] greater than 100 µM.

CCN1C[C@]2(OC(=O)c3ccccc3NC(=O)/C=C/c3ccnc(C)c3)CC[C@H](OC)[C@]34C1[C@@H](C[C@H]23)[C@@]1(O)C[C@H](OC)C[C@H]2C[C@@H]4[C@]1(O)[C@H]2OC [Compound 11] was tested, and the “activities compared with 5-fluorouracil” value [4] was “equal or better activities than 5-fluorouracil”, the IC50 [1] was 10.2 ± 0.78 µM and the IC50 [2] was 18.6 ± 0.43 µM. For the same compound, the IC50 [3] was 10.2 ± 0.45 µM.

With CCc1cc(/C=C/C(=O)Nc2ccccc2C(=O)O[C@@]23CC[C@H](OC)[C@]45C([C@@H](C[C@H]24)[C@@]2(O)C[C@H](OC)C[C@H]4C[C@@H]5[C@]2(O)[C@H]4OC)N(CC)C3)ccn1 [Compound 12] the “activities compared with 5-fluorouracil” value [4] was “equal or better activities than 5-fluorouracil”, the IC50 [1] was 13.86 ± 0.1 µM and the IC50 [2] was 21.7 ± 0.45 µM. For the same compound, the IC50 [3] was 25.05 ± 0.16 µM.

In the case of CCN1C[C@]2(OC(=O)c3ccccc3NC(=O)/C=C/c3cc(C)nc(C)c3)CC[C@H](OC)[C@]34C1[C@@H](C[C@H]23)[C@@]1(O)C[C@H](OC)C[C@H]2C[C@@H]4[C@]1(O)[C@H]2OC [Compound 13], the IC50 [1] is reported as 16.6 ± 1.87 µM, the IC50 [2] is reported as 32.3 ± 1.34 µM and the IC50 [3] is reported as 18 ± 0.58 µM.

CCN1C[C@]2(OC(=O)c3ccccc3NC(=O)/C=C/c3cc(C)ccn3)CC[C@H](OC)[C@]34C1[C@@H](C[C@H]23)[C@@]1(O)C[C@H](OC)C[C@H]2C[C@@H]4[C@]1(O)[C@H]2OC [Compound 14] gave an IC50 [1] of 67.8 ± 1.3 µM, an IC50 [2] of 41.3 ± 1.42 µM and an IC50 [3] of 87.02 ± 0.58 µM.

For CCc1ccnc(/C=C/C(=O)Nc2ccccc2C(=O)O[C@@]23CC[C@H](OC)[C@]45C([C@@H](C[C@H]24)[C@@]2(O)C[C@H](OC)C[C@H]4C[C@@H]5[C@]2(O)[C@H]4OC)N(CC)C3)c1 [Compound 15], the IC50 [1] was 44.1 ± 2.73 µM, the IC50 [2] was 47.3 ± 2.56 µM and the IC50 [3] was 21.8 ± 1.2 µM.

Compound CCN1C[C@]2(OC(=O)c3ccccc3NC(=O)/C=C/c3cc(C)cc(C)n3)CC[C@H](OC)[C@]34C1[C@@H](C[C@H]23)[C@@]1(O)C[C@H](OC)C[C@H]2C[C@@H]4[C@]1(O)[C@H]2OC [Compound 16] has an IC50 [1] of 40.8 ± 2.55 µM, an IC50 [2] of 69.3 ± 1.42 µM and an IC50 [3] greater than 100 µM.

With CCN1C[C@]2(OC(=O)c3ccccc3NC(=O)/C=C/c3cc(C(C)C)ccn3)CC[C@H](OC)[C@]34C1[C@@H](C[C@H]23)[C@@]1(O)C[C@H](OC)C[C@H]2C[C@@H]4[C@]1(O)[C@H]2OC [Compound 17] the IC50 [1] was 61.3 ± 1.24 µM, the IC50 [2] was greater than 100 µM and the IC50 [3] was greater than 100 µM.

With CCN1C[C@]2(OC(=O)c3ccccc3NC(=O)/C(C)=C/c3cccc(C)n3)CC[C@H](OC)[C@]34C1[C@@H](C[C@H]23)[C@@]1(O)C[C@H](OC)C[C@H]2C[C@@H]4[C@]1(O)[C@H]2OC [Compound 18] the IC50 [1] was greater than 100 µM, the IC50 [2] was greater than 100 µM and the IC50 [3] was greater than 100 µM.

With CCN1C[C@]2(OC(=O)c3ccccc3NC(=O)/C=C/c3cccc(C)n3)CC[C@H](OC)[C@]34C1[C@@H](C[C@H]23)[C@@]1(O)C[C@H](OC)C[C@H]2C[C@@H]4[C@]1(O)[C@H]2OC [Compound 19] the IC50 [1] was greater than 100 µM, the IC50 [2] was greater than 100 µM and the IC50 [3] was 95.1 ± 1.92 µM.
